These results are taken from patent US12435023B2, “Crystal form of Treprostinil sodium salt and preparation method therefor” (Shanghai Forefront Pharmaceutical Co., Ltd, priority 2019, dated 2025).

Counter-ions that a name gives are not always drawn.

For data set [1] the following is noted: 60% relative humidity, according to WO2016055819; cited from earlier work.
Data set [2] can be described thus: Water solubility at 25±2° C., dissolution observed within 30 minutes. As to conditions: for solubility at 30 min: 25 °C, thermodynamic from solid; for Dissolution observed in water: 25±2° C., within 30 minutes, free acid 20 mg in 200 mL, salt forms about 100 mg in 1 mL. Here is the method: 20 mg of Treprostinil free acid was weighed and added into a volumetric flask, 200 mL of water was added, and placed in a water bath pot (temperature was controlled at 25±2° C.), shook strongly for 30 seconds every 5 minutes, and the dissolution within 30 minutes was observed.

Data set [3] can be described thus: Hygroscopicity by dynamic vapor sorption (DVS). Format: physicochemical. As to conditions: for Water content: DVS. From the text:
Hygroscopicity is one of the key physicochemical properties of drugs and has a significant impact on drug stability, powderological properties and subsequent processing procedure.

The nature of data set [4]: Accelerated stability at 40±2° C. and 75±5% relative humidity for 6 months. As to conditions: 75±5% RH. As for the experimental part: The purity of samples after stability test was determined by HPLC, the water content of samples after stability test was determined by Karl Fischer titration, and the crystal form of samples after stability test was determined by XRPD.

The nature of data set [5]: Hygroscopicity on storage at 25 degrees and 80% relative humidity for 24 hours. In kind it is physicochemical. As to conditions: 25 degrees.

With `CCCCC[C@H](O)CC[C@@H]1[C@H]2Cc3cccc(OCC(=O)O)c3C[C@H]2C[C@H]1O` [Form A, Treprostinil sodium salt], in data set [1], the Crystal form conversion result is given as “converted into Form C”.
What is called solubility is how much of the substance goes into solution per volume. Low values mean a poorly soluble substance, high ones a readily soluble substance. Take `CCCCC[C@H](O)CC[C@@H]1[C@H]2Cc3cccc(OCC(=O)O)c3C[C@H]2C[C@H]1O` [Treprostinil free acid, Treprostinil]: in data set [2], the solubility at 30 min was below 0.1 mg/mL and the “Dissolution observed in water” value is on record as “insoluble”.
Regarding `CCCCC[C@H](O)CC[C@@H]1[C@H]2Cc3cccc(OCC(=O)[O-])c3C[C@H]2C[C@H]1O.[Na+]` [Treprostinil sodium salt], the Water content amounted to 18.6 wt % in data set [3] (40.0 RH % / 25° C.); 18.7 wt % in data set [3] (45.0 RH % / 25° C.); 18.7 wt % in data set [3] (50.0 RH % / 25° C.); 18.8 wt % in data set [3] (55.0 RH % / 25° C.); 18.8 wt % in data set [3] (60.0 RH % / 25° C.); 18.9 wt % in data set [3] (65.0 RH % / 25° C.). The Water content was determined as 18.9 wt % in data set [3] (70.0 RH % / 25° C.); 19.0 wt % in data set [3] (75.0 RH % / 25° C.); 19.7 wt % in data set [3] (80.0 RH % / 25° C.); 19.9 wt % in data set [3] (85.0 RH % / 25° C.); 20.5 wt % in data set [3] (90.0 RH % / 25° C.); 22.6 wt % in data set [3] (95.0 RH % / 25° C.). In addition, the “Hygroscopicity according to the definition in European Pharmacopoeia” value in data set [3] (relative humidity 40% to 80%) was “slight hygroscopicity”. For the same molecule, the “Increasing value of the water content, i.e., hygroscopicity” value in data set [3] (relative humidity increased from 40% to 80%) turned out to be 1.1 wt %. In addition, the Appearance entry is “Off-white” in data set [4] (0 day), “Off-White” in data set [4] (1 month), “Off-white” in data set [4] (3 months) and “Off-white” in data set [4] (6 months). For the same molecule, the “Purity (HPLC) after stability test” value in data set [4] (0 day) was found to be 99.97%; in data set [4] (1 month), 99.97%; in data set [4] (3 months), 99.96%; in data set [4] (6 months), 99.98%. Besides, the “Water (Karl Fischer) after stability test” value in data set [4] (0 day) amounted to 20.1%; in data set [4] (1 month) it was 20.4%; in data set [4] (3 months) it was 20.0%; in data set [4] (6 months), 20.2%. Also, in data set [4] (6 months), the “Chemical stability and solid-state stability” value was “excellent chemical stability and solid-state stability”. In data set [2], this molecule came in with a solubility at 30 min above 100 mg/mL. Moreover, the “Dissolution observed in water” value in data set [2] is reported as “completely dissolved”. In addition, the “Behaviour of the solid on humid storage” value in data set [5] is reported as “deliquesced into a viscous solution”. For the same molecule, in data set [5], the Hygroscopicity entry is on record as “extremely hygroscopic”.
